Experiment [1] is described as follows: Antiinflammatory activity in mouse neutrophils assessed as inhibition of LPS-stimulated TNFalpha cytokine expression at 1 ug/ml after 3 hrs by flow cytometeric analysis. Format: functional. Conditions: Neutrophil.
A short description of experiment [2]: Antiinflammatory activity in mouse neutrophils assessed as inhibition of LPS-stimulated IL1-beta expression at 1 ug/ml after 4-5 hrs by ELISA relative to control. It counts as functional. Conditions: Neutrophil.
A short description of experiment [3]: Antiinflammatory activity in mouse neutrophils assessed as inhibition of LPS-stimulated IL-6 expression at 1 ug/ml after 4-5 hrs by ELISA relative to control. Conditions: Neutrophil. Format: functional.
A short description of experiment [4]: Antiinflammatory activity in mouse neutrophils assessed as inhibition of LPS-stimulated IL-6 expression at 100 ug/ml after 4-5 hrs by ELISA relative to control. It counts as functional. Conditions: Neutrophil.
The nature of experiment [5]: Antiinflammatory activity in mouse neutrophils assessed as inhibition of LPS-stimulated TNFalpha cytokine expression at 100 ug/ml after 3 hrs by flow cytometeric analysis. It counts as functional. Conditions: Neutrophil.
The nature of experiment [6]: Antiinflammatory activity in mouse neutrophils assessed as inhibition of LPS-stimulated IL1-beta expression after 4-5 hrs by ELISA relative to control. It counts as functional, Neutrophil.

The record followed here is ChEMBL document CHEMBL1811867, “Psilostachyin, acetylated pseudoguaianolides and their analogues: preparation and evaluation of their anti-inflammatory potential” (2011).

Take `C=C1C(=O)O[C@@H]2[C@H]1CC[C@H](C)C1=C[C@H](OC(C)=O)C(=O)[C@]12C`: the inhibition at 1 µg/mL in experiment [1] came out at 5.46%.
On the same count and under the same terms, then `C=C1C(=O)O[C@@H]2[C@H]1CC[C@H](C)C1=C[C@@H](OC(C)=O)C(=O)[C@]12C`, with 2.34%; and `C=C1C(=O)O[C@@H]2[C@H]1CC[C@H](C)[C@]1(OC(C)=O)C=CC(=O)[C@@]21C`, with -1.17%.
The same measure, in the same setting: under `C=C1C(=O)O[C@@H]2[C@H]1CC[C@H](C)[C@]1(OC(=O)CC)C=CC(=O)[C@@]21C` stands -17.2%; under `C=C1C(=O)O[C@@H]2[C@H]1CC[C@H](C)[C@]1(OC(=O)CCC)C=CC(=O)[C@@]21C`, 14.1%.
Turning to `C=C1C(=O)O[C@@H]2[C@H]1CC[C@H](C)C1=C[C@H](OC(=O)CC)C(=O)[C@]12C`, the inhibition at 1 µg/mL in experiment [1] was determined as 10.5%.
Regarding `C=C1C(=O)O[C@@H]2[C@H]1CC[C@H](C)C1=C[C@H](OC(=O)CCC)C(=O)[C@]12C`, the inhibition at 1 µg/mL in experiment [1] was -6.64%.
On the same count and under the same terms, under `C=C1C(=O)O[C@@H]2[C@H]1CC[C@H](C)C1=C[C@@H](OC(=O)CC)C(=O)[C@]12C` stands -9.37%.
Still for that read-out and setting: then `C=C1C(=O)O[C@@H]2[C@H]1CC[C@H](C)C1=C[C@@H](OC(=O)CCC)C(=O)[C@]12C`, with 32%.
Consider `C=C1C(=O)O[C@@H]2[C@H]1CC[C@H](C)[C@]1(C=CC(=O)O1)[C@@]2(C)O`, for which the inhibition at 1 µg/mL in experiment [1] was 31.2%.
For the compound `C[C@H]1CC[C@@H]2[C@@H](OC(=O)[C@@]23CCN=N3)[C@](C)(O)[C@@]12C=CC(=O)O2`, the inhibition at 1 µg/mL is 49.2% in experiment [1], 36% in experiment [2] and 11.3% in experiment [3].
For the compound `C=C1C(=O)O[C@@H]2[C@H]1CC[C@H](C)[C@]1(OC(C)=O)C=CC(=O)O[C@@]21C`, the inhibition at 1 µg/mL in experiment [1] was 16.8%.
In the case of `C=C1C(=O)O[C@@H]2[C@H]1CC[C@H](C)[C@]1(OC(=O)CC)C=CC(=O)O[C@@]21C`, in experiment [1], the inhibition at 1 µg/mL came to 26.9%.
Take `C=C1C(=O)O[C@@H]2[C@H]1CC[C@H](C)[C@]1(OC(=O)CCC)C=CC(=O)O[C@@]21C`: the inhibition at 1 µg/mL in experiment [1] came to 12.5%.
In the case of `C[C@H]1CC[C@@H]2[C@@H](OC(=O)[C@@]23CCN=N3)[C@]2(C)OC(=O)C=C[C@@]12O`, the inhibition at 1 µg/mL in experiment [1] was 59.8%; in experiment [2] it was 41.4%; in experiment [3], 14%.
On the same counts, the results for `CC1=C2CC[C@H](C)[C@]3(O)CCC(=O)O[C@@]3(C)[C@@H]2OC1=O` are 53.1%, 40.9% and 17.1%.
Consider `C=C1C(=O)O[C@@H]2[C@H]1CC[C@H](C)[C@]1(O)C=CC(=O)O[C@@]21C`, for which the inhibition at 1 µg/mL in experiment [1] was 41.4%.
`C=C1C(=O)O[C@@H]2[C@H]1CC[C@H](C)[C@]1(O)CCC(=O)[C@@]21C` [CORONOPILIN]: the inhibition at 1 µg/mL in experiment [1] was -7.03%.
The same measure, in the same setting: under `C=C1C(=O)O[C@@H]2[C@H]1CC[C@H](C)[C@]1(O)C=CC(=O)[C@@]21C` [PARTHENIN] stands -0.39%.
Regarding `C=C1C(=O)O[C@@H]2[C@H]1CC[C@H](C)[C@]1(CCC(=O)O1)[C@@]2(C)O` [PSILOSTACHYIN A], the inhibition at 1 µg/mL in experiment [1] was 39.5%.
For `COc1ccc(C2CNC(=O)C2)cc1OC1CCCC1` (centres undefined) [ROLIPRAM], the inhibition at 100 µg/mL in experiment [4] worked out at 36.1%; in experiment [5], 71.5%. In addition, in experiment [6], the “inhibition (INH)” value was found to be 64.27%.
